# Reference: the NIST ThermoML archive (doi:10.1016/j.fluid.2011.07.002)
# ± gives the expanded uncertainty stated by the source.
# Settings: Liquid, Closed cell (Static) method
vapor or sublimation pressure (278.15 K) [kPa],vapor or sublimation pressure (283.15 K) [kPa],vapor or sublimation pressure (288.15 K) [kPa],vapor or sublimation pressure (293.15 K) [kPa],vapor or sublimation pressure (298.15 K) [kPa],vapor or sublimation pressure (303.15 K) [kPa],vapor or sublimation pressure (308.15 K) [kPa],vapor or sublimation pressure (313.15 K) [kPa],vapor or sublimation pressure (318.15 K) [kPa],vapor or sublimation pressure (323.15 K) [kPa],SMILES
0.071 ± 0.002,0.093 ± 0.002,0.13 ± 0.002,0.178 ± 0.003,0.253 ± 0.003,0.346 ± 0.004,0.477 ± 0.006,0.627 ± 0.007,0.828 ± 0.009,1.101 ± 0.011,"CC12CCC(CC1)C(C)(C)O2 [1,3,3-trimethyl-2-oxabicyclo[2.2.2]octane]"
2.264 ± 0.021,3.147 ± 0.024,4.327 ± 0.032,5.876 ± 0.04,7.798 ± 0.051,10.41 ± 0.066,13.71 ± 0.084,17.9 ± 0.1,23.06 ± 0.13,29.46 ± 0.15,CCO [ethanol]
